Where two headings read alike, the source gives them in different places.
How the values were obtained:
PSP patients [1] = details: cited from earlier work; for PSP trial outcome, sexes not separated (Boxer et al.): 30 mg twice daily, 52 weeks, whole population
[2] = test system: subjects suffering from amnestic mild cognitive impairment (aMCI); experiment: aMCI clinical trial, CANTAB Delayed Match-to-Sample (DMTS) test, men and women analysed separately; assay type: in vivo, human; details: for effect of treatment on aMCI symptoms: males, 30 mg/day; for DMTS change vs placebo, Student's t test: men only
Experimental: The subject's task is to select the pattern that matches the original sample, here depicted after a 12 s interval. Thus, subjects suffering from aMCI were treated with either 5 mg daily or 15 mg twice daily (BID) by intranasal davunetide administration (1 or three puffs of the same strength davunetide solution). Treatment was for 12 weeks and testing was at baseline and every four weeks, including also 4 weeks after cessation of treatment. When analyzing the data, we separated here men and women for the first time as outlined below. […] We further conclude that much higher dose are required, especially in females.

Hace1 = experiment: Hippocampal RNA sequencing of Adnp mutated (HTR (Tyr)) mice; assay type: in vivo
Source text: In this model, gait deficits were accentuated in females, and ameliorated by NAP treatment. We discovered a surprising mirror imaging in NAP peptide (davunetide) brain (hippocampus) action in the treated mice as a dependence on mice sex. […] Hace1 is associated with ataxia and Huntington disease and is also involved in depression and Alzheimer's disease. NAP protection (FIG. 11) further attests to sex-dependent treatments of the diseases associated or mediated with Hace1.

[3] = test system: subjects suffering from amnestic mild cognitive impairment (aMCI); details: sexes not separated; cited from earlier work
[4] = test system: Adnp mutated (HTR (Tyr)) mice; details: deficits accentuated in females (Karmon et al.); cited from earlier work
PSP patients [5] = experiment: Phase 2/3 davunetide vs placebo trial in PSP, re-evaluated separating males and females; assay type: in vivo, human
Experimental: In this example we used results of a clinical trial performed as described in Boxer et al. Shortly, in a double blind, parallel group, phase 2/3 trial, participants were randomly assigned with permuted blocks in a 1:1 ratio to davunetide (NAP, having amino acid sequence […] set forth as SEQ ID NO: 1, 30 mg twice daily, intranasally) or placebo for 52 weeks at 48 centers in Australia, Canada, France, Germany, the UK, and the USA. Participants met the modified Neuroprotection and Natural History in Parkinson Plus Syndrome study criteria for PSP. Primary endpoints were the change from baseline in PSP Rating Scale (PSPRS, 28 items, 6 categories, 0=normal, 100=most disability) and Schwab and England Activities of Daily Living scale (SEADL, 11-point rating scale, 0=vegetative, 100%/=completely independent, 10% increments) at up to 52 weeks. Data collection was at week 0, 6, 13, 26, 39 and 52. All participants and study personnel were masked to treatment assignment. Analysis was by intention to treat. The trial is registered with Clinicaltrials.gov, number NCT01110720. 313 participants were randomly assigned to davunetide (n=157) or to placebo (n=156), and 241 (77%) completed the study (118 and […] in the davunetide and placebo groups, respectively). A secondary outcome was brain ventricular volume as measured with boundary shift integral analysis of T1-weighted magnetic resonance imaging (MRI) scans, mostly collected at week 0 and 52. At the same time, selected patients were also subjected to lumbar puncture and assessment of Tau content and Tau hyperphosphorylation in the cerebrospinal fluid (CSF).
To further understand disease progression, sex/age/baseline differences and drug influence, we re-evaluated study results, separating males and females, and assessing the primary and secondary endpoints. In this respect, we further assessed individually the 6 disability domains of the PSPRS, namely: daily activities (by history, seven items with a total maximum score of 24), behavior (mentation, emotional, interference with activity of daily living, maximum score of 16), bulbar (speech and swallowing, maximal score of 8), ocular motor (eye and eyelid activity, 16 points), limb motor (fine motor skills including tremor, 16 points) and gait/midline (gross motor skills, 20 points) https://www.physio-pedia.com/Progressive_Supranuclear_Palsy_Rating_Scale_(PSP-RS).
Statistical considerations: To include the ventricle volumetric measures, the cohort was composed of female and male PSP patients treated with davunetide or placebo (sample sizes for sex-treatment groups at 52 weeks of treatment: 48-55), outcome variables included ventricular volume (will be referred to as volume), PSPRS and SEADL assessed at study initiation and follow up to 52 weeks after twice daily treatment.
Data analysis was performed using Graph Pad Prism 7.0 software (see FIGS. 1 and 4). Other statistical tests and visualizations were made in R version 4.2.1 (2022-06-23) with the base library, ggplot2 and ggplot2 extension packages. Correlation plots statistics (FIGS. 2, 3 and 5) were computed using the standard Pearson method. The volume change (from FIG. 3) is the difference between the baseline and week-52 measurements. PSPRS, SEADL and ventricular volume in figures (FIG. 5) are represented by differences between the baseline and week-52 measurements, as a percentage of the baseline measurement. FIGS. 6 and 7 give the absolute changes overtime, due to the non-normal distribution of most parameters, statistical significance was measured using the Wilcoxon test. Only extreme values (defined as 3*IQR deviation from the penultimate top/bottom quantiles), were removed from the final calculations. There were only 11 observations that were considered extreme and their influence on our results was insignificant. FIG. 8 representing the geriatric depression scale measure (GDS) was prepared using excel.

[6] = test system: subjects with schizophrenia; details: cited from earlier work; for UPSA score vs placebo (Javitt et al.): 5 mg daily dose; for UPSA between-group effect size (d): 12 weeks, men and women mixed (Javitt et al.)
[7] = test system: subjects with schizophrenia; experiment: Schizophrenia clinical trial, UCSD Performance-based Skills Assessment (UPSA), analysed separately for males and females; assay type: in vivo, human
Experimental: Briefly, sixty-three subjects with schizophrenia received davunetide at one of two different doses (5, 30 mg/day) or placebo for 12 weeks in a multicenter, double-blind, parallel-group randomized clinical trial. The MATRICS Consensus Cognitive Battery (MCCB) assessed cognitive effects. The UCSD Performance-based Skills Assessment (UPSA) with maximal score of 100 and the Schizophrenia Cognition Rating Scale (SCoRS) assessed functional capacity. Subjects continued their current antipsychotic treatment during the trial. For UPSA, there was a significant main effect of treatment across study arms (p=0.048). Between-group effect size (d) values were 0.74 and 0.48, favoring the 5 and 30 mg doses, respectively.
Considering the results obtained for PSP and the involvement of ADNP in both diseases, we analyzed the data separately for males and females with 7-16 subjects per group. […] All in all, the 5 mg daily dose was beneficial for women as detected after 6 and 12 weeks of treatment.

[8] = males, from week 26 on, 30 mg twice daily
[9] = woman cohort, very few individuals, exploratory

For `CC[C@H](C)[C@H](NC(=O)[C@H](CO)NC(=O)[C@@H](NC(=O)[C@@H]1CCCN1C(=O)[C@H](C)NC(=O)[C@@H](N)CC(N)=O)C(C)C)C(=O)N1CCC[C@H]1C(=O)N[C@@H](CCC(N)=O)C(=O)O` [davunetide], the “PSP trial outcome, sexes not separated (Boxer et al.)” value (PSP patients [1]) is listed as “did not meet its endpoints”, the “PSP trial outcome, sexes not separated (Boxer et al.)” value (PSP patients [1]; listed as Davunetide) is listed as “not an effective treatment” and the “safety in the PSP trial (Boxer et al.)” value (PSP patients [1]; in vivo) is listed as “showing safety”. For the same compound, the “effect of treatment on aMCI symptoms” value ([2]; listed as NAP) was “significant improvement”, the “effect of treatment on aMCI symptoms” value ([2]; listed as NAP peptide) was “statistically significant effect” and the “DMTS change vs placebo, Student's t test” value ([2]; test week 8) was “significant difference”. The “DMTS change vs placebo, Student's t test” value ([2]; week 4 and 16) was “trending”, the “Hace1 gene/mRNA intron retention event (aberrant alternative splicing)” value (Hace1; ADNP mutated HTR males, brain hippocampal samples) was “corrected” and the “Hace1 expression as a consequence of NAP treatment” value (Hace1; male vs female Adnp mutated mice, hippocampus) was “sex-specific opposite expression”. For the same compound, the “cognitive score in aMCI (Morimoto et al.)” value [3] was “cognitive score enhancement”, the gait deficits [4] was “ameliorated” and the “CGIds (Clinical Global Impression of Disease Severity)” value (PSP patients [5]; davunetide-treated males, P=0.013) was “deteriorated”. For the same compound, the “adverse effects on all other PSPRS domains” value (PSP patients [5]; females) was “no adverse effects”, the “ventricular volume increase correlating with baseline ventricular volume” value (PSP patients [5]; females, 30 mg twice daily intranasally, 52 weeks) was “complete protection” and the “PSPRS change vs placebo” value (PSP patients [5]; females, 52 weeks, 30 mg twice daily) was “trended toward significant improvement”. For the same compound, the “disease progression in PSPRS mental behavior domain” value (PSP patients [5]; females, over 52 weeks) was “almost halted”, the “SEADL change from baseline vs placebo” value (PSP patients [5]; females, starting at week 39 and continuing on 52, P=0.0187 and P=0.00537) was “significant protective effect” and the “effect on oculomotor activities (PSPRS domain)” value (PSP patients [5]; females, week 6, P=0.0127) was “transient adverse effect”. For the same compound, the “GDS score (geriatric depression) compared to placebo” value (PSP patients [5]; females, week 52, Wilcoxon, P=0.023) was “improved significantly”, the “bulbar domain of the PSPRS (dysarthria, dysphagia) vs placebo” value (PSP patients [5]; females, week 52, P=0.0222) was “significant protective effect” and the “limb motor skills (PSPRS domain) vs placebo” value (PSP patients [5]; females, P=0.0838) was “partially protected”. The “ventricular volume change vs baseline ventricular volume” value (PSP patients [5]; males, 30 mg twice daily intranasally, 52 weeks) was “no drug effects”, the “PSPRS change compared to the placebo group” value (PSP patients [5]; [8]) was “significant increase in PSPRS” and the “SEADL change compared to the placebo group” value (PSP patients [5]; [8]) was “decrease in SEADL”. For the same compound, the “percent of baseline ventricular volume change with age vs placebo” value (PSP patients [5]; men, 30 mg twice daily intranasally, 52 weeks) was “No differences”, the “percent of baseline ventricular volume change with age vs placebo” value (PSP patients [5]; men, 30 mg twice daily intranasally, 52 weeks, listed as NAP peptide) was “not observed in males” and the “phosphorylated Tau in the cerebrospinal fluid (CSF) compared to placebo” value (PSP patients [5]; [9]) was “trends in total Tau and phosphorylated Tau reduction”. The “total Tau in the cerebrospinal fluid (CSF) compared to placebo” value (PSP patients [5]; [9]) was “trends in total Tau and phosphorylated Tau reduction”, the “percent of baseline ventricular volume change with age vs placebo” value (PSP patients [5]; women (older woman patients), 30 mg twice daily intranasally, 52 weeks) was “significant neuroprotective effect” and the “percent of baseline ventricular volume change with age vs placebo” value (PSP patients [5]; women (older woman patients), 30 mg twice daily intranasally, 52 weeks, listed as NAP peptide) was “reduced the increase in the size of brain ventricles”. The “UPSA score vs placebo (Javitt et al.)” value ([6]; sexes mixed) was “significantly more effective”, the “UPSA score vs placebo (Javitt et al.)” value ([6]; sexes mixed, listed as NAP) was “significantly higher” and the “UPSA between-group effect size (d)” value ([6]; 5 mg dose) was 0.74. The “UPSA score vs 5 mg daily dose and placebo (Javitt et al.)” value ([6]; 30 mg (15 mg twice daily), sexes mixed) was “insignificantly different”, the “UPSA between-group effect size (d)” value ([6]; 30 mg dose) was 0.48 and the “daily living activities in schizophrenia patients (Javitt et al.)” value ([6]; sexes mixed) was “protection of daily living activities”. For the same compound, the “UPSA change, average” value ([7]; men, 5 mg daily) was 7.4 points, the “effect on UPSA” value ([7]; men, 5 mg daily, especially after 6 weeks) was “effective” and the “effect on UPSA” value ([7]; men, 15 mg twice daily (30 mg/day), 12 weeks) was “significant results”. The “effect on UPSA” value ([7]; men, 15 mg twice daily (30 mg/day), 12 weeks, listed as NAP) was “significant improvement”, the “UPSA change, mean” value ([7]; women, 5 mg daily, 12 weeks) was 14.9 points and the “effect on UPSA” value ([7]; women, 5 mg daily, after 6 and 12 weeks) was “beneficial”. For the same compound, the UPSA improvement ([7]; women, 5 mg daily, after 12 weeks) was 15%, the “effect on UPSA” value ([7]; women, 15 mg twice daily (30 mg/day), week 12, vs 5 mg/day P=0.002) was “significantly lower effect” and the “effect on UPSA” value ([7]; women, 15 mg twice daily (30 mg/day), week 12, vs 5 mg/day P=0.002, listed as NAP) was “not observed”.
